From patent US20030027720A1, “Synergistic fungicidal composition comprising a compound analogous to strobilurin” (priority 1995, published 2003)

What was measured:
Pyrenophora teres = assay: In vivo test, helminthosporium disease of barley, preventive treatment 7 days before infection (Colby); conditions: graded 10 days after infection
Experimental: In vivo test of the combination of ICIA5504 with iprodione with respect to helminthosporium disease of barley by preventive treatment 7 days before infection.
The fungicides are used at the following doses:
The young barley plants (var. Express) which are 12 days old (first leaf developed stage) are treated with the experimental fungicides at the doses indicated above in a slurry volume of 250 l/ha (3 repeats/dose). Seven days after the treatment, the young barley plants are infected with a suspension of Pyrenophora teres spores (10,000 spores/ml). The young plants are incubated for 48 hours at 20° C., 100% relative humidity (RH). Next, the plants are transferred to a greenhouse at 20° C., 70-80% RH under natural light. The grading of the disease is carried out ten days after infection by estimating the leaf surface area contaminated on the first leaf (10 young plants/pot).
By comparing with the control (non-treated-contaminated) a percentage efficacy is calculated. The synergy is then quantified by using the Colby model.

Alternaria brassicae = assay: In vivo test, alternaria disease of radish, preventive treatment 24 hours before infection (Tammes isobole); conditions: radish seedlings, spray 24 h before infection, reading 6 days after infection
Experimental: In vivo test of the combination of ICIA5504 with iprodione with respect to alternaria disease of radish (Alternaria brassicae) by preventive treatment 24 hours before infection. A suspension comprising the compounds A and B in a liquid mixture composed of a surface-active agent (oleate of polyoxyethylenated derivative of sorbitan) and water is prepared. The component B is iprodione; the A/B ratio is 0.25, 0.5, 1, 2 or 4. Radish seedlings (variety Pernot), are grown in small pots. When these seedlings are 10-12 days old (cotyledon, 1st leaf stage), they are treated by spraying with the above suspension. […] After 24 hours, each seedling is infected by spraying with an aqueous suspension of spores of Alternaria brassica, which suspension is obtained from an in vitro culture of the fungus. These spores are suspended at a concentration of 40,000 units per cm^3 of inoculum. Infection is carried out by spraying the inoculum at the top surface of the leaves. The infected seedlings are then incubated for six days at 18-20° C. at 90-100% relative humidity under natural light. Reading is carried out 6 days after infection, in comparison with the control seedlings. […]

Row | Structure (SMILES) | Observed efficacy (Pyrenophora teres; iprodione 12.5 g/ha alone) [%] | Observed efficacy (Pyrenophora teres; iprodione 25 g/ha alone) [%] | Observed efficacy (Pyrenophora teres; iprodione 50 g/ha alone) [%] | Observed efficacy (Pyrenophora teres; iprodione 100 g/ha alone) [%] | Observed efficacy (Pyrenophora teres; iprodione 200 g/ha alone) [%] | Observed efficacy (Pyrenophora teres; iprodione 400 g/ha alone) [%] | Observed efficacy (Pyrenophora teres; iprodione 800 g/ha alone) [%] | dose of A alone necessary for the destruction of 80% of the parasite (Alternaria brassicae) | Observed efficacy (Pyrenophora teres; ICIA5504 1.5 g/ha alone) [%] | Observed efficacy (Pyrenophora teres; ICIA5504 3.1 g/ha alone) [%] | Observed efficacy (Pyrenophora teres; ICIA5504 6.2 g/ha alone) [%] | Observed efficacy (Pyrenophora teres; ICIA5504 12.5 g/ha alone) [%] | Observed efficacy (Pyrenophora teres; ICIA5504 25 g/ha alone) [%] | Observed efficacy (Pyrenophora teres; ICIA5504 50 g/ha alone) [%] | Observed efficacy (Pyrenophora teres; ICIA5504 100 g/ha alone) [%] | Observed efficacy (Pyrenophora teres; ICIA5504 200 g/ha alone) [%]
1 | CC(C)NC(=O)N1CC(=O)N(c2cc(Cl)cc(Cl)c2)C1=O [iprodione] | 15.79 | 7.02 | 37.72 | 35.09 | 47.37 | 50.88 | 59.65 |  |  |  |  |  |  |  |  | 
2 | CO/C=C(/C(=O)OC)c1ccccc1Oc1cc(Oc2ccccc2C#N)ncn1 [ICIA5504, methyl (E)-2-{2-[6-(2-cyanophenoxy)pyrimidin-4-yloxy]phenyl}-3-methoxyacrylate] |  |  |  |  |  |  |  | 115 ppm (mg/l) | 0 | 17.54 | 34.21 | 59.21 | 76.75 | 83.86 | 81.67 | 92.72
